Assays:
hEdc3 = biological target: T1, hEdc3 (Homo sapiens, UniProt Q96F86); assay: isothermal titration calorimetry ([…]°, pH […]); type: binding
T1 construct: gene EDC3; full-length hEdc3
T1 sequence (Q96F86 1-508): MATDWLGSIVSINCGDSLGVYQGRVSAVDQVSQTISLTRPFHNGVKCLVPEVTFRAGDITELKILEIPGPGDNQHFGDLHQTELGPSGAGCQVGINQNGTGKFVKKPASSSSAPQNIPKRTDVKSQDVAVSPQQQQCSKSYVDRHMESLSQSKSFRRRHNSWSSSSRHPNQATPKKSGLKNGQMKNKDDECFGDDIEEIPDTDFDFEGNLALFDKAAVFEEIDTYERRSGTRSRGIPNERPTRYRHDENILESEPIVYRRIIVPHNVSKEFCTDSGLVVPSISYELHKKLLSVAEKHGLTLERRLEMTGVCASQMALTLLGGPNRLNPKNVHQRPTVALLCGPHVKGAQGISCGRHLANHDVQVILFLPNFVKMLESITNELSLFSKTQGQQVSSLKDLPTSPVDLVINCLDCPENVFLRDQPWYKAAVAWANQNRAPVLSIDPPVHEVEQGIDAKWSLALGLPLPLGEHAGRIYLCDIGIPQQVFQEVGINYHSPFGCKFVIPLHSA

yEdc3 = biological target: T2, yEdc3 (Saccharomyces cerevisiae, UniProt P39998); assay: thin-layer chromatography of […]-NAD incubated with recombinant protein; type: biochemical
T2 construct: gene EDC3; full-length recombinant yeast Edc3
T2 sequence (P39998 1-551): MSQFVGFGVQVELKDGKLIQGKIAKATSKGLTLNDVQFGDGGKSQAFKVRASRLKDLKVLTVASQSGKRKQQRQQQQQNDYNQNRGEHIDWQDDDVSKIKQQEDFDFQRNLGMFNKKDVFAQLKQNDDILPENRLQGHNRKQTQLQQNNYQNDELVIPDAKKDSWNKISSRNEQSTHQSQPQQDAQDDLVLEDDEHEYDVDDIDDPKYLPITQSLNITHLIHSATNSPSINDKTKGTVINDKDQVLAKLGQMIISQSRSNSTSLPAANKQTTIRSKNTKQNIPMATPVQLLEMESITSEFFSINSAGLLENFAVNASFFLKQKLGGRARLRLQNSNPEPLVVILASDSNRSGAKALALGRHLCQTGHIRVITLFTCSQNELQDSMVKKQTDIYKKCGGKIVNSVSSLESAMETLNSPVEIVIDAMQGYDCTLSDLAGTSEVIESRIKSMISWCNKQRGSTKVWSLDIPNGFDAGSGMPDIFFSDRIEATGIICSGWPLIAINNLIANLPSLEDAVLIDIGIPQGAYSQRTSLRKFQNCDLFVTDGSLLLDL

| Structure (SMILES) | Kd (hEdc3) [µM] | thin-layer chromatography of 32P-NAD incubated with recombinant protein (yEdc3) |
| --- | --- | --- |
| NC(=O)C1=CN([C@@H]2O[C@H](COP(=O)(O)OP(=O)(O)OC[C@H]3O[C@@H](n4cnc5c(N)ncnc54)[C@H](O)[C@@H]3O)[C@@H](O)[C@H]2O)C=CC1 [NADH] | 163 ± 27.4 | – |
| NC(=O)c1ccc[n+]([C@@H]2O[C@H](COP(=O)([O-])OP(=O)(O)OC[C@H]3O[C@@H](n4cnc5c(N)ncnc54)[C@H](O)[C@@H]3O)[C@@H](O)[C@H]2O)c1 [NAD] | – | Incubation of yeast WT Edc3 with radiolabeled NAD gave rise to two slower migrating species |

Source: publication PMC4059234, “Edc3 Function in Yeast and Mammals Is Modulated by Interaction with NAD-Related Compounds” (G3: Genes|Genomes|Genetics, 2014)
